Test results published in patent US8163509B2, “Biological markers predictive of anti-cancer response to insulin-like growth factor-1 receptor kinase inhibitors” (The Regents of the University of Colorado, A Body Corporate, priority 2008, dated 2012).

Biological target: T1, IGF1R (Homo sapiens, UniProt P08069)
T1 construct: endogenous in cells; host or cells: HT29 and HCT116 CRC cell lines
Assay: Meso Scale Discovery (MSD) assay of phosphorylated IGF1R
Assay type: cell-based
Settings: HT29 and HCT116; 72 h; PQIP 0.4 μmol/L, SN38 0.004 μmol/L, Oxaliplatin 1.0 μmol/L
Procedure: Detection of IGF1R using Meso Scale Discovery assays (MSD): HT29 and HCT116 CRC cell lines were seeded into 6-well plates, allowed to attach for 24 hours and exposed to PQIP and chemotherapy (SN38, or Oxaliplatin) alone or in combination for 72 h. Following exposure, cells were rinsed with PBS and scraped into RIPA lysis buffer containing protease inhibitors, EDTA, NaF, and sodium orthovanadate. Total protein was quantified using the BioRad Dc Protein Assay (BioRad, Hercules, Calif.). Fifty micrograms of protein in 25 μL was added per well for MSD detection of phosphorylated IGF-1R according to manufacturer's instructions (Meso Scale Discovery, Gaithersburg, Md.).
Cells were exposed to PQIP (0.4 μmol/L) and chemotherapy (SN38 0.004 μmol/L, or Oxaliplatin 1.0 μmol/L) alone or in combination for 72 h. Protein was extracted and analyzed for phospho/total IGF1R levels using a Meso Scale Discovery (MSD; Gaithersburg, Md. 20877) assay.

T1 sequence (P08069 31-1367): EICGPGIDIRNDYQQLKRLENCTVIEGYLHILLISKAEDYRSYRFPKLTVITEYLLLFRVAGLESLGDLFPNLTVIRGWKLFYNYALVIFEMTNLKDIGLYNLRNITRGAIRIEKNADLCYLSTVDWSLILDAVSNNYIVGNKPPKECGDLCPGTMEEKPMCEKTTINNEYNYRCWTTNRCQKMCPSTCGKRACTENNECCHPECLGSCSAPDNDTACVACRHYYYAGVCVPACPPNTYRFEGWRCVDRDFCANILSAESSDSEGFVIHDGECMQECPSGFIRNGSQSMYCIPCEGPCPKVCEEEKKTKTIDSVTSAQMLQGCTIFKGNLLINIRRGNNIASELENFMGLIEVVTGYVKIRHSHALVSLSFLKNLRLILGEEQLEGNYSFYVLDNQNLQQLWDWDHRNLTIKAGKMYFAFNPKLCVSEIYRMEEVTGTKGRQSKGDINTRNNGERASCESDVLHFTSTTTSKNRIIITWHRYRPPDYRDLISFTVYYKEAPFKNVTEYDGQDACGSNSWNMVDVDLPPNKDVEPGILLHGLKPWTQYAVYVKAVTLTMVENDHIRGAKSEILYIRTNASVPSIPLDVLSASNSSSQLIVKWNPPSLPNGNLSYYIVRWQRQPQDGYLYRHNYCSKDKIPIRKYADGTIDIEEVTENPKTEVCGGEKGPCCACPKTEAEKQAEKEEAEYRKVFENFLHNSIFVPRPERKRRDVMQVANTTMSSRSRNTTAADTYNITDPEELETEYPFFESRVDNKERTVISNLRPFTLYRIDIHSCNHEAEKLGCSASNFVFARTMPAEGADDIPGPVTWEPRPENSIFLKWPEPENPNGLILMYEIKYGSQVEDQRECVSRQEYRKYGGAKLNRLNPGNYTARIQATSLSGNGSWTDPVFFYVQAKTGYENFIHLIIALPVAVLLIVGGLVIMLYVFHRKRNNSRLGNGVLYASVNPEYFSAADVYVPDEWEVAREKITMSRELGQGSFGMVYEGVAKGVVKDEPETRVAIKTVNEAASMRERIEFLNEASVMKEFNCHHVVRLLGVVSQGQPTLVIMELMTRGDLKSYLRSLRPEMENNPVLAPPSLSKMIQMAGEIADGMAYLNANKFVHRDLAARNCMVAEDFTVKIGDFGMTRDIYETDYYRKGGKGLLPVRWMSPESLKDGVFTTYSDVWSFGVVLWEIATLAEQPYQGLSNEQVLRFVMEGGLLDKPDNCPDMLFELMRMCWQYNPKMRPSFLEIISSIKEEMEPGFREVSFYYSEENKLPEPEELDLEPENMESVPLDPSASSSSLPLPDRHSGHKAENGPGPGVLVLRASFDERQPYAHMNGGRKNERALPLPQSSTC

Row | SMILES | effect on phosphorylated IGF1R, agent alone
1 | O=C1[O][Pt]2([NH][C@@H]3CCCC[C@H]3[NH]2)[O]C1=O [Oxaliplatin, reference compound] | no significant effect
2 | CCc1c2c(nc3ccc(O)cc13)-c1cc3c(c(=O)n1C2)COC(=O)[C@]3(O)CC [SN38, 7-Ethyl-10-hydroxy-camptothecin, reference compound] | no significant effect
